Results as given in patent US12012402B2, “Pyrido[2,3-d]pyrimidin-7-ones and related compounds as inhibitors of protein kinases” (UNIVERSITY OF HOUSTON SYSTEM, priority 2017, dated 2024).

Assays:
[1] = biological target: Recombinant RIPK2 protein (Homo sapiens, UniProt O43353); assay: Receptor Interacting Protein Kinase 2 (RIPK2) enzyme assay (ADP-Glo); type: biochemical; details: 2 h at room temperature
From the text: Receptor Interacting Protein Kinase 2 (RIPK2) Enzyme Assay
Inhibition, %=(1−(test signal/maximal signal))*100.

[2] = system: NOD2 cellular signaling; assay: NOD2 signaling assay in HEK-Blue cells (NFkB-SEAP reporter, L18-MDP stimulated); type: cell-based; details: HEK-Blue cells expressing human NOD2, L18-MDP stimulation, 8 h; NI = no inhibition observed; read-out: EC50 HEK Blue RIPK2
Method: HEK-Blue cells expressing human NOD2 and NFkB-SAEP reporter (Invivogen) are seeded into 96 well clear plates at 7.5×10^3 cells per well in 100 μL of DMEM media supplemented with 10% FBS and 1% antibiotic-antimycotic mix. Cells are allowed to attach for 48 h in 5% CO2 tissue culture incubator at 37° C. On the morning of the experiment, media in the wells is replaced with 100 μL of HEK-Blue detection media (Invivogen). Cells are treated with the inhibitors, diluted in DMSO (0.5 μL per well) for 15 min in 5% CO2 tissue culture incubator at 37° C. After that, cells are stimulated by the addition of 1 ng/well L18-MDP (Invivogen). Cells are incubated in 5% CO2 tissue culture incubator at 37° C. for 8 h and absorbance, corresponding to the SEAP in the media, is determined in Wallac3V plate reader (Perkin Elmer). Inhibition, %=(1−((sample signal-unstimulated and DMSO treated cells)/(L18-MDP stimulated and DMSO treated cells—unstimulated and DMSO treated cells)))*100.

[3] = biological target: T1, human ALK2 (Homo sapiens, UniProt Q04771); assay: Activin-Like Kinase 2 (ALK2) enzyme assay (33P-casein); type: biochemical; details: casein 1 mg/mL, 30 min; NI = no inhibition observed
T1 sequence (Q04771 21-509): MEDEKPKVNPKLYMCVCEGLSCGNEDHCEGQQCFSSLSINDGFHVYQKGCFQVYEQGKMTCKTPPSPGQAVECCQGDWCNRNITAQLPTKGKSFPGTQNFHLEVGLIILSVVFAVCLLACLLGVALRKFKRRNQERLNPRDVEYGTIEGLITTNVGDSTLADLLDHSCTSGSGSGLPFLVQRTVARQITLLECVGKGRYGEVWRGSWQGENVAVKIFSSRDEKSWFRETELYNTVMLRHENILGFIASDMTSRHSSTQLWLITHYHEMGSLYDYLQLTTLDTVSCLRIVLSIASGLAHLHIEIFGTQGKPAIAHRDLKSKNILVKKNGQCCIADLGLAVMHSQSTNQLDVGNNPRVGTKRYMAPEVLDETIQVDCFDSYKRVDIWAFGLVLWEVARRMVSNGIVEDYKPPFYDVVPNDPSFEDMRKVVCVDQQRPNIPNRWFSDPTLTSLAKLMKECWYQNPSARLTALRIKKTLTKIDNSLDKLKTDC
Method: Activin-Like Kinase 2 (ALK2) Enzyme Assay
Enzyme inhibitory activity was evaluated in a standard kinase enzyme assay by incubating human ALK2 with the protein substrate casein (1 mg/mL) and γ-^33ATP (10 µM) in the presence of various concentrations of test compounds (10 nM-100 μM). After 30 min the amount of ^33P-casein was determined.

Sequence of Recombinant RIPK2 protein (O43353 whole entry): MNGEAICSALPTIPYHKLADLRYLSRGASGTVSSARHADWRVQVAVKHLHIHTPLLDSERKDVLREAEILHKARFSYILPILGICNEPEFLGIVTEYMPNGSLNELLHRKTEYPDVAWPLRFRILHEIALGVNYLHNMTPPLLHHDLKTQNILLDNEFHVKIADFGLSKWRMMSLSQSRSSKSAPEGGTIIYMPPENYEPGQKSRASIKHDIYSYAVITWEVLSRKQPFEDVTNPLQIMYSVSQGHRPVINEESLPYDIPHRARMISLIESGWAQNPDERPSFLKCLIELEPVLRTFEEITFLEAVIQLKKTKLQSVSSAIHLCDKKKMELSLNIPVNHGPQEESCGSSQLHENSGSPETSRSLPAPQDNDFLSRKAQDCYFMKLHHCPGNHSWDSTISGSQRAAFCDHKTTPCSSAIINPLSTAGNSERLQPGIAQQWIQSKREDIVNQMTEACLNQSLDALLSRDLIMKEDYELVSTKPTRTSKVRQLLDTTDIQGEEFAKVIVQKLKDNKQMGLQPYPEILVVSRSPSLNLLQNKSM

IC50 [1] [nM]	EC50 [2] [nM]	IC50 [3] [nM]	Structure (SMILES)
22.1	168	326	CCN(CC)CCOc1ccc(Nc2ncc3cc(-c4ccccc4Cl)ccc3n2)cc1 [UH15PN1, 6-(2-chlorophenyl)-N-(4-(2-(diethylamino)ethoxy)phenyl)quinazolin-2-amine]
30.2	353	> 100000	CS(=O)(=O)c1cccc(Nc2ncc3cc(-c4ccccc4Cl)ccc3n2)c1 [UH15PN2, 6-(2-chlorophenyl)-N-(3-(methylsulfonyl)phenyl)quinazolin-2-amine]
29.6		8420	CS(=O)(=O)c1cccc(Nc2ncc3cc(-c4ccc(O)cc4)ccc3n2)c1 [UH15PN3, 4-(2-((3-(methylsulfonyl)phenyl)amino)quinazolin-6-yl)phenol]
41.5	1960		CS(=O)(=O)c1cccc(Nc2ncc3cc(-c4ccccn4)ccc3n2)c1 [UH15PN5, N-(3-(methylsulfonyl)phenyl)-6-(pyridin-2-yl)quinazolin-2-amine]
25	450		CS(=O)(=O)c1cccc(Nc2ncc3cc(-c4cccnc4)ccc3n2)c1 [UH15PN6, N-(3-(methylsulfonyl)phenyl)-6-(pyridin-3-yl)quinazolin-2-amine]
	55		Cn1c(=O)c(-c2ccccc2Cl)cc2cnc(Nc3cccc(N4CCNCC4)c3)cc21 [UH15_25, 3-(2-chlorophenyl)-1-methyl-7-((3-(piperazin-1-yl)phenyl)amino)-1,6-naphthyridin-2(1H)-one]
27.3	406	> 100000	Cn1c(=O)c(-c2ccccc2Cl)cc2cnc(Nc3cccc(S(C)(=O)=O)c3)cc21 [UH15_32, 3-(2-chlorophenyl)-1-methyl-7-((3-(methylsulfonyl)phenyl)amino)-1,6-naphthyridin-2(1H)-one]
21.6	0.2	226	Cn1c(=O)c(-c2ccccc2Cl)cc2cnc(Nc3cccc(N4CCNCC4)c3)nc21 [UH15_33, 6-(2-chlorophenyl)-8-methyl-2-((3-(piperazin-1-yl)phenyl)amino)pyrido[2,3-d]pyrimidin-7(8H)-one]
35.2	34	1100	Cn1c(=O)c(-c2ccccc2Cl)cc2cnc(Nc3cccnc3)nc21 [UH15_34, 6-(2-chlorophenyl)-8-methyl-2-(pyridin-3-ylamino)pyrido[2,3-d]pyrimidin-7(8H)-one]
87.4	949		Cn1c(=O)c(-c2ccccc2Cl)cc2cnc(Nc3ccccn3)nc21 [UH15_35, 6-(2-chlorophenyl)-8-methyl-2-(pyridin-2-ylamino)pyrido[2,3-d]pyrimidin-7(8H)-one]
